Test results from US5994361A, “Substituted purinyl derivatives with immunomodulating activity” (priority 1995, dated 1999).

How the values were obtained:
[1] = system: T cell activity (ConA), spleen mononuclear leukocytes; test: Mitogenic proliferation on spleen cell suspension, T (ConA); format: cell-based, C57BL-6 mice; conditions: at 10^-8 - 10^-5 (M); 4320 min
Text: (§1) Mitogenic lectin (mitogen) is a protein which binds and cross-links specific cells surface carbohydrate determinants, and will polyclonally stimulate lymphoid cells. Lymphocyte activation by either antigens or mitogens results in intracellular changes and the subsequent development into a lymphoblast. Mitogenic stimulation of lymphocytes in vitro is believed to mimic the series of events which occur in vivo following their stimulation by specific antigens. PHA, ConA, and PWM, LPS mitogens can be used as a measurement of T cell and B cell activity, respectively.
(§2) Briefly, spleen mononuclear leukocytes from C57BL-6 mice were incubated in the presence or absence of mitogens with or without tested drugs. After 72 hours or 5 days, ^3 H thymidine incorporation was recorded as an indication of cell transformation and proliferation.
(§3) 100 μl of a suspension of 2×10^6 cells/ml (2×10^5 cells/well) were incubated in presence of PHA or ConA or PWM or LPS at the following concentrations:
(§4) PHA=0.01% final concentration-0.001%
(§5) Cells were incubated in presence or absence of drugs for 72 hours. 0.5 or 1 μCi of tritiated thymidine (^3 H) was added per well the last 18 or 6 hours of incubation respectively. Cells were harvested and counted on a Beta counter.

blood cells [2] = test: Immunophenotyping on blood cells, combination with 5 Fluorouracil; format: in vivo, C57/BLJ6 mice; conditions: N = 4
Protocol: (§6) After in vivo drugs analysis, the drugs were evaluated on whole blood for drug stability and toxicity. Furthermore, in vivo/ex vivo analysis was performed on normal and cyclophosphamide immunosuppressed animals plus 5Fu-treated animals. Cell immunophenotyping was performed on mouse-treatedblood and spleen. The following cell surface antigens were analyzed:
(§7) CD3 (all T cells), CD4 (T helper/inducer, binds class II-restricted T cells), CD8a (cytotoxic T cells, CTL adhesion), CD11a (T, B, NK, some stem cells, CTL adhesion anti LFA-1α), MAC-1 (monocyte/macrophage), NK (natural killer cells), Ly5 (B cells), CD45 (all leukocytes, protein tyrosine phosphates), and TCR (T cell receptor).
(§8) C57/BLJ6 mice (6-8 weeks old) were injected daily for 4 consecutive days, sacrificed at day 5 and immunophenotyping was performed on blood and spleen cells.
(§9) The cells were washed twice in PBS, resuspended in 1 ml of RPMI 2% FBS, and incubated for 45 min. on ice with monoclonal antibody. The cells were washed once, fixed with 1% paraformaldehyde, then analyzed using XL Coulter® counter.

[3] = system: B cell activity (LPS), spleen mononuclear leukocytes; test: Mitogenic proliferation on spleen cell suspension, B (LPS); format: cell-based, C57BL-6 mice; conditions: Mus musculus, Leukocyte, 72 h; at 10^-6 (M)
Text: as §1, §2, §3, §4, §5

spleen cells = test: Immunophenotyping on spleen cells, combination with 5 Fluorouracil; format: in vivo, C57/BLJ6 mice; conditions: N = 4
Protocol: as §6, §7, §8, §9

DA-3 mammary carcinoma [4] = test: Compound #1 with Cytoxan 20 mg/kg against established DA-3 mammary carcinoma (Example 93); format: in vivo; conditions: compound #1 25 mg/kg i.p. daily + CTX 20 mg/kg i.v.
Protocol: Combination of compound #1 (25 and 50 mg/kg i.p. daily) plus CTX (20 mg/kg i.v. single bolus) was evaluated against day 4 established DA-3 tumors.

[5] = system: T cell response (mixed lymphocyte reaction); test: Mixed lymphocyte reaction (MLR) assay; format: cell-based, C57B1/6 mice and DBA/2 mice; conditions: at 10^-9 - 10^-5 M
Protocol: Mixed lymphocyte reaction is an in vitro counterpart of the allograft rejection. Briefly, T cell response was obtained when cells taken from two inbred strains from two outbred individuals of any species were mixed in vitro in culture.
After 4 days incubation, ^3 H thymidine uptake and cytotoxicity assay (CTL) were performed.
3 C57B1/6 mice and 3 DBA/2 mice wre killed and lymphocytes prepared using lympholyte M. The cell concentration was adjusted to 10×10^6 cell/ml for each lysis. DBA/2 cells were irradiated with 3000 Rads. 1 ml of the C57 cells+1 ml of the DBA/2 cells+1 ml of the drug at 3 different concentrations were incubated together for 5 days. Positive control was IL-2 at 15 ng/ml final. After 5 days, the CTL and MLR tests were carried out.
The cells were resuspended and 100 μl of cell suspension were deposited in each of the 96 wells in the plate, 50 μl of Thymidine at 20 μCi/ml was added for 6 hrs. The cells were then collected and counted using a beta counter.

blood cells [6] = test: Immunophenotyping on blood cells of compound #1 treated mice; format: in vivo, C57/BLJ6 mice; parameters: unit not given here; conditions: N = 10; for CD8+ CD45+ (mean): daily 4 days
Protocol: as §6, §7, §8, §9

DA-3 mammary carcinoma [7] = test: Compound #1 with Cytoxan 28 mg/kg against DA-3 mammary carcinoma, tumor sizes (Example 94); format: in vivo, Balb/c mice; parameters: key: tumor volume = length × width²/2
Protocol: Parameters of effect were measured by inhibition of tumor outgrowth and growth rate [tumors measured along the longest axis (length) and the perpendicular shortest axis (width) and the tumor volumes (T.V.±S.E.) was calculated by the formula T.V.=length (cm)×(width cm)^2 /2.] assessment of body weight loss.
In another experiment, the CTX treatment was prolonged. Balb/c mice were injected s.c. with 5×10^5 DA-3 tumor cells at day 0. At day 4 when established tumors appeared, tumor-bearing animals were randomized (n=11/gr.) and injected with CTX (at 28 mg/kg) i.v. bolus injections at days 4, 11, and 18. […]

For `CN(C)c1ncnc2c1ncn2CCCCCOC(=O)N[C@H](CCCNC(=N)N)C(=O)O` [Compound #1, N,N-Dimethylaminopurinyl Pentoxycarbonyl D-Arginine], the “T (ConA) mitogenic proliferation” value [1] was 2 - 4 ×, the “CD8+ CD45+ (mean)” value (blood cells [2]; 5 FU + cpd #1 25 mg/kg) was 10.11 and the “NK+ (mean)” value (blood cells [2]; 5 FU + cpd #1 25 mg/kg) was 3.58. The “CD8+ CD45+ (mean)” value (blood cells [2]; 5 FU + cpd #1 50 mg/kg) was 8.65, the “NK+ (mean)” value (blood cells [2]; 5 FU + cpd #1 50 mg/kg) was 4.12 and the fold induction at 1 µM [3] was 2. For the same compound, the “CD4+ CD45- (mean)” value (spleen cells; 5 FU + cpd #1 25 mg/kg) was 13.19, the “NK+ (mean)” value (spleen cells; 5 FU + cpd #1 25 mg/kg) was 3.32 and the “CD4+ CD45- (mean)” value (spleen cells; 5 FU + cpd #1 50 mg/kg) was 12.06. For the same compound, the “NK+ (mean)” value (spleen cells; 5 FU + cpd #1 50 mg/kg) was 3.17, the anti-tumor effect (DA-3 mammary carcinoma [4]) was “no significant effect” and the MLR [5] was 1.5 - 4 ×. The “CD11b+ (mean)” value (blood cells [6]; 25 mg/kg) was 13.71, the “NK+ CD3+ (mean)” value (blood cells [6]; 25 mg/kg) was 5.84 and the “NK+ CD3- (mean)” value (blood cells [6]; 25 mg/kg) was 5.90. For the same compound, the “CD8+ CD45+ (mean)” value (blood cells [6]; 25 mg/kg) was 10.11, the “CD11b+ (mean)” value (blood cells [6]; 50 mg/kg) was 9.68 and the “NK+ CD3+ (mean)” value (blood cells [6]; 50 mg/kg) was 3.25. For the same compound, the “NK+ CD3- (mean)” value (blood cells [6]; 50 mg/kg) was 8.14, the “CD8+ CD45+ (mean)” value (blood cells [6]; 50 mg/kg) was 8.65 and the tumor size (DA-3 mammary carcinoma [7]; BCH-1393 50 mg/kg + CTX 28 mg/kg, day 7) was 6.5. For the same compound, the tumor size (DA-3 mammary carcinoma [7]; BCH-1393 50 mg/kg + CTX 28 mg/kg, day 9) was 12.6, the tumor size (DA-3 mammary carcinoma [7]; BCH-1393 50 mg/kg + CTX 28 mg/kg, day 11) was 20.2 and the tumor size (DA-3 mammary carcinoma [7]; BCH-1393 50 mg/kg + CTX 28 mg/kg, day 14) was 9.5. For the same compound, the tumor size (DA-3 mammary carcinoma [7]; BCH-1393 50 mg/kg + CTX 28 mg/kg, day 16) was 41.7, the tumor size (DA-3 mammary carcinoma [7]; BCH-1393 50 mg/kg + CTX 28 mg/kg, day 18) was 44.9 and the tumor size (DA-3 mammary carcinoma [7]; BCH-1393 50 mg/kg + CTX 28 mg/kg, day 21) was 63.4. The tumor size (DA-3 mammary carcinoma [7]; BCH-1393 50 mg/kg + CTX 28 mg/kg, day 23) was 69.6, the tumor size (DA-3 mammary carcinoma [7]; BCH-1393 50 mg/kg + CTX 28 mg/kg, day 25) was 95.4 and the tumor size (DA-3 mammary carcinoma [7]; BCH-1393 50 mg/kg + CTX 28 mg/kg, day 28) was 104.2. The tumor size (DA-3 mammary carcinoma [7]; BCH-1393 50 mg/kg + CTX 28 mg/kg, day 30) was 115.8, the tumor size (DA-3 mammary carcinoma [7]; BCH-1393 50 mg/kg Ip (Days 3-28) + CTX 28 mg/kg Iv (days 4, 11, 18), day 4) was 3.6 and the tumor size (DA-3 mammary carcinoma [7]; single agent (CTX 28 mg/kg days 4, 11, 18, or BCH-1393 50 mg/kg days 3-28), day 4) was 2.7. The tumor size (DA-3 mammary carcinoma [7]; single agent (CTX 28 mg/kg or BCH-1393 50 mg/kg), day 7) was 10.2, the tumor size (DA-3 mammary carcinoma [7]; single agent (CTX 28 mg/kg or BCH-1393 50 mg/kg), day 9) was 18.1 and the tumor size (DA-3 mammary carcinoma [7]; single agent (CTX 28 mg/kg or BCH-1393 50 mg/kg), day 11) was 29.2. For the same compound, the tumor size (DA-3 mammary carcinoma [7]; single agent (CTX 28 mg/kg or BCH-1393 50 mg/kg), day 14) was 50.1, the tumor size (DA-3 mammary carcinoma [7]; single agent (CTX 28 mg/kg or BCH-1393 50 mg/kg), day 16) was 58.5 and the tumor size (DA-3 mammary carcinoma [7]; single agent (CTX 28 mg/kg or BCH-1393 50 mg/kg), day 18) was 66.3. For the same compound, the tumor size (DA-3 mammary carcinoma [7]; single agent (CTX 28 mg/kg or BCH-1393 50 mg/kg), day 21) was 94.2, the tumor size (DA-3 mammary carcinoma [7]; single agent (CTX 28 mg/kg or BCH-1393 50 mg/kg), day 23) was 131.4 and the tumor size (DA-3 mammary carcinoma [7]; single agent (CTX 28 mg/kg or BCH-1393 50 mg/kg), day 25) was 130.9. It also gave a tumor size (DA-3 mammary carcinoma [7]; single agent (CTX 28 mg/kg or BCH-1393 50 mg/kg), day 28) of 152.5 and a tumor size (DA-3 mammary carcinoma [7]; single agent (CTX 28 mg/kg or BCH-1393 50 mg/kg), day 30) of 187.2.
